In US11589586B2, “Pesticidal and parasiticidal pyrazole-isoxazoline compounds” (BOEHRINGER INGELHEIM ANIMAL HEALTH USA INC., priority 2017, dated 2023):

Legend:
[1] = tested on: A. aegypti L1 larvae; experiment: Efficacy against A. aegypti mosquitos (L1 larvae motility, dose response); assay type: in vivo; details: Aedes aegypti; ten A. aegypti L1 larvae, diluted LB media, 25° C., 48h; read-out: EC50 (motility of larvae compared to DMSO control wells)
Description: Method A: Efficacy of Compounds Against A. aegypti Mosquitos Compounds were formulated in 100% DMSO are added to microtiter plates containing 180 μl of diluted LB media (Luria-Bertani media is a combination of tryptone, salt and yeast extract). Ten A. aegypti L1 larvae are added and the plates are incubated at 25° C. for 48h. The efficacy of a compound is determined based on the motility of the larvae as compared to average motility of control wells containing DMSO only. A dose response assay was conducted to determine an EC50 value.

[2] = tested on: adult Ctenocephalides felis; experiment: Efficacy against fleas when ingested (treated bovine blood membrane feeding); assay type: in vivo; details: adult Ctenocephalides felis fed on treated bovine blood, 72 hour assessment, compared with untreated controls
Description: Method B: Efficacy of Compounds Against Fleas when Ingested
A cylindrical test container was filled with 10 adult Ctenocephalides felis. A cylindrical well was closed on one end with a self-sealing flexible film and placed on top of the test container in such a position that the fleas could pierce the film and feed on the contents of the cylinder. The test compound solution was then pipetted into bovine blood and added to the well. The container part with the Ctenocephalides felis was held at 20-22° C. and 40-60% relative humidity while the well part containing the treated blood was held at 37° C. and 40-60% relative humidity. Assessment was performed at 72 hours after application in comparison with untreated controls.

SMILES | EC50 [1] [µM] | LC50 [2] [µM]
Cc1cc(C2=NOC(c3cc(C(F)(F)F)nn3C)(C(F)(F)F)C2)ccc1C(=O)NCCS(C)(=O)=O (centres unmarked) [Compound 2-5, N-(2-methanesulfonylethyl)-2-methyl-4-[5-[1-methyl-3-(trifluoromethyl)-1H-pyrazol-5-yl]-5-(trifluoromethyl)-4,5-dihydro-1,2-oxazol-3-yl]benzamide] | < 10 | < 20
Cn1nc(C(F)(F)F)cc1C1(C(F)(F)F)CC(c2ccc(Cl)c(C(=O)NC3CC3)c2)=NO1 (centres unmarked) [Compound 2-10, 2-Chloro-N-cyclopropyl-5-[5-[1-methyl-3-(trifluoromethyl)-1H-pyrazol-5-yl]-5-(trifluoromethyl)-4,5-dihydro-1,2-oxazol-3-yl]benzamide] | < 20 | 
COCn1nc(C2(C(F)(F)F)CC(c3ccc(C(=O)NCC(=O)NCC(F)(F)F)c(C)c3)=NO2)cc1C(F)(F)F (centres unmarked) [Compound 2-31, 4-(5-(1-(methoxymethyl)-5-(trifluoromethyl)-1H-pyrazol-3-yl)-5-(trifluoromethyl)-4,5-dihydroisoxazol-3-yl)-2-methyl-N-(2-oxo-2-(2,2,2-trifluoroethylamino)ethyl)benzamide] | < 10 | 
Cc1cc(C2=NOC(c3cn(C)nc3C(F)(F)F)(C(F)(F)F)C2)ccc1C(=O)NCC(=O)NCC(F)(F)F (centres unmarked) [Compound 2-11, 2-[(2-methyl-4-[5-[1-methyl-3-(trifluoromethyl)-1H-pyrazol-4-yl]-5-(trifluoromethyl)-4,5-dihydro-1,2-oxazol-3-yl]phenyl)formamido]-N-(2,2,2-trifluoroethyl)acetamide] | < 20 | 
COCn1nc(C(F)(F)F)cc1C1(C(F)(F)F)CC(c2ccc(C(=O)NCC(=O)NCC(F)(F)F)c(C)c2)=NO1 (centres unmarked) [Compound 2-30, 2-[(4-[5-[1-(methoxymethyl)-3-(trifluoromethyl)-1H-pyrazol-5-yl]-5-(trifluoromethyl)-4,5-dihydro-1,2-oxazol-3-yl]-2-methylphenyl)formamido]-N-(2,2,2-trifluoroethyl)acetamide] | < 10 | 
Cc1cc(C2=NOC(c3cc(C(F)(F)F)nn3C)(C(F)(F)F)C2)ccc1C(=O)NCC(F)(F)F (centres unmarked) [Compound 2-6, 2-methyl-4-[5-[1-methyl-3-(trifluoromethyl)-1H-pyrazol-5-yl]-5-(trifluoromethyl)-4,5-dihydro-1,2-oxazol-3-yl]-N-(2,2,2-trifluoroethyl)benzamide] | < 10 | < 50
Cn1nc(C(F)(F)F)cc1C1(C(F)(F)F)CC(c2ccc(C(=O)NCC(=O)NCC(F)(F)F)c3ccccc23)=NO1 (centres unmarked) [Compound 2-2, 2-[(4-[5-[1-methyl-3-(trifluoromethyl)-1H-pyrazol-5-yl]-5-(trifluoromethyl)-4,5-dihydro-1,2-oxazol-3-yl]naphthalen-1-yl)formamido]-N-(2,2,2-trifluoroethyl)acetamide] | < 10 | < 20
CSCCNC(=O)c1ccc(C2=NOC(c3cc(C(F)(F)F)nn3C)(C(F)(F)F)C2)cc1C (centres unmarked) [Compound 2-4, 2-methyl-4-[5-[1-methyl-3-(trifluoromethyl)-1H-pyrazol-5-yl]-5-(trifluoromethyl)-4,5-dihydro-1,2-oxazol-3-yl]-N-[2-(methylsulfanyl)ethyl]benzamide] | < 10 | < 20
Cn1nc(C(F)(F)F)cc1C1(C(F)(F)F)CC(c2ccc3c(c2)COC32CN(C(=O)CS(C)(=O)=O)C2)=NO1 (centres unmarked) [Compound 2-3, 1-(5′-(5-(1-methyl-3-(trifluoromethyl)-1H-pyrazol-5-yl)-5-(trifluoromethyl)-4,5-dihydroisoxazol-3-yl)-3′H-spiro[azetidine-3,1′-isobenzofuran]-1-yl)-2-(methylsulfonyl)ethan-1-one] | < 10 | < 20
Cn1nc(C(F)(F)F)cc1C1(C(F)(F)F)CC(c2ccc(C(=O)NCC(=O)NCC(F)(F)F)cc2)=NO1 (centres unmarked) [Compound 2-9, 2-[(4-[5-[1-Methyl-3-(trifluoromethyl)-1H-pyrazol-5-yl]-5-(trifluoromethyl)-4,5-dihydro-1,2-oxazol-3-yl]phenyl)formamido]-N-(2,2,2-trifluoroethyl) acetamide] | < 20 | 
C=CCNC(=O)c1ccc(C2=NOC(c3cc(C(F)(F)F)nn3C)(C(F)(F)F)C2)cc1C (centres unmarked) [Compound 2-8] | < 20 | 
Cc1cc(C2=NOC(c3cc(C(F)(F)F)nn3C)(C(F)(F)F)C2)ccc1C(=O)NCC(=O)NCC(F)(F)F (centres unmarked) [Compound 2-1, 2-[(2-Methyl-4-[5-[1-methyl-3-(trifluoromethyl)-1H-pyrazol-5-yl]-5-(trifluoromethyl)-4,5-dihydro-1,2-oxazol-3-yl]phenyl)formamido]-N-(2,2,2-trifluoroethyl)acetamide] | < 10 | < 20
Cc1cc(C2=NOC(c3cc(C(F)(F)F)nn3C)(C(F)(F)F)C2)ccc1C(=O)NC1CC1 (centres unmarked) [Compound 2-7, N-cyclopropyl-2-methyl-4-[5-[1-methyl-3-(trifluoromethyl)-1H-pyrazol-5-yl]-5-(trifluoromethyl)-4,5-dihydro-1,2-oxazol-3-yl]benzamide] | < 10 | < 50
